Assay: Viscosity / syringeability of 1% w/v solutions (VISCOMATE VM-10A)
Type: physicochemical
Conditions: 1% w/v in phosphate-buffered saline solution pH 7.4, 20±0.2° C., no stirring
Experimental: The syringeability of the HA-Re compound of the invention was analysed in comparison to that of hyaluronic acid both with a high and a low molecular weight.
In particular, the following three samples were prepared: • a) a 1% w/v solution of high molecular weight hyaluronic acid (average molecular weight approximately 1'200'000) in phosphate-buffered saline solution, pH 7.4 • b) a 1% w/v solution of low molecular weight hyaluronic acid (average molecular weight approximately 600'000) in phosphate-buffered saline solution, pH 7.4 • c) a 1% w/v solution of the HA-Re compound of the invention in phosphate-buffered saline solution, pH 7.4.
The viscosity of the samples was then measured using a VISCOMATE MODEL VM-10A (glass vial: 3 ml; in the absence of stirring conditions; temperature 20±0.2° C.), with the following values being obtained: • a) η=78.4 mPa·s • b) η=64.8 mPa·s • c) η=47.9 mPa·s

low molecular weight hyaluronic acid
viscosity η: 64.8 mPa·s

From patent US7834173B2, “Esters of hyaluronic acid with rhein, process for their preparation and compositions comprising the same” (Laboratoire Medidom S.A., priority 2004, dated 2010)
